Laboratory results from US9023616B2, “Oil producing microbes and method of modification thereof” (DSM Nutritional Products AG, priority 2006, dated 2015).

Tests used:
[1] = system: ONC-T18; experiment: Fatty acid production antagonist supplementation of ONC-T18 culture, fatty acid profile by FAME GC-FID; assay type: cell-based, Thraustochytrium sp. ONC-T18; settings: for DHA accumulated in ONC-T18, change versus control (in words): antagonist added to medium
Description: Media containing 25 g/l sea salt and 1 g/l yeast extract was autoclaved at 120° C. for 20 minutes. Sterilized glucose was added to the media at a concentration of 9 g/l. Sethoxydim (Supleco) was dissolved in dimethyl sulfoxide at a concentration of 5 mg/ml was then added to the media at to represent a final concentration of 100 µM. 1 ml of a 24 hour pre-culture of ONC-T 18 that had been cultured in the same media was added. Culturing was carried out in a shaker (130 rpm) for four days at room temperature. After the incubation period, cells were harvested by centrifugation at 4300 rpm for 10 minutes. The cell pellets were then freeze-dried, weighed and the oil was extracted from the cells.
(§1) The lipids were extracted and derivatized to fatty acid methyl esters (FAME) for gas chromatography analysis (GC). Transesterification and extraction was done using 200 mg freeze dried cells, with C19:0 as internal standard, added transesterification reaction mix (methanol:hydrochloric acid:chloroform, 10:1:1) mixed and heated at 90° C. for 2 hours, then allowed to cool at room temperature. FAMEs were extracted by adding 1 ml water, and 2 ml hexane:chloroform (4:1), and allow organic and aqueous phases to separate. The organic layer was extracted and treated with 0.5 g of anhydrous sodium sulfate to remove particulates and residual water. The organic solvents were evaporated under a stream of argon. The FAMEs were re-suspended in 5 ml of iso-octane and analyzed by GC-FID. The percent conversion was calculated by dividing the product produced by the sum of (the product produced plus the substrate added) and then multiplying by 100.
Media containing 6 g/l sea salt, 2 g/l yeast extract, and 8 g/l L-glutamic acid monosodium salt hydrate was autoclaved at 120° C. for 20 minutes. Sterilized D+-glucose was then added to this media at a concentration of 40 g/l. Cerulenin dissolved in ethanol at a concentration of 5 mg/ml was added to 250 ml flask and the solvent was evaporated for 1 hour prior to adding the media to the flask. The amount of cerulenin in the flask represented a final concentration of 20 mg/l. ONC-T18 was then added to the medium from a plate culture and culturing occurred in a shaker (130 rpm) at room temperature for four days. After the incubation period, cells were harvested by centrifugation at 4300 rpm for 10 minutes, washed once with distilled water, and then centrifuged again at 4300 rpm for 10 minutes. The cell pellets were then freeze-dried, weighed and the oil was extracted from the cells.
as §1, with “produced+the” for “produced plus the”
Media containing 6 g/l sea salt, 2 g/l yeast extract, and 8 g/l L-glutamic acid monosodium salt hydrate was autoclaved at 120° C. for 20 minutes. Sterilized D+-glucose wad then added at a concentration of 5 g/l or was not added to the media. Oleic acid was added to the media to represent a final concentration of 2 ml/l. […]

[2] = system: ONC-T18; experiment: Carotenoid content of ONC-T18 exposed to Norflurazon; assay type: cell-based, Thraustochytrium sp. ONC-T18
Description: Cells were harvested by centrifugation at 3800×g and washed with phosphate buffered saline. Then resuspended in 10× volume of acetone (Sigma-Aldrich, St Louis, Mo., USA), agitated for 5 minutes at 200 RPM, centrifuged at 3,800×g for 5 mins and concentrated to dryness by N2 evaporation. Followed by resuspension in a minimal amount of 10% acetone in hexane prior to HPLC analysis. Identifications were carried out on an Agilent 1100 HPLC (Agilent, Palo Alto, Calif., USA) equipped with a variable wavelength detector set at 470 nm. Samples were injected through a Symmetry C18 guard column (Waters, Milford, Mass., USA) to a Bondclone C18 reverse-phase column (Phenomenex, Torrance, Calif., USA; […] particles; 3.9×300 mm i.d.). The injection volume was 10 μl and a flow of 1 ml min^−1 10% acetone in hexane over a 25 minute period was used. Carotenoid identity was further confirmed with mass spectrometry analysis (Micromass ESI-QT of MS, Waters, Milford, Mass., USA). Quantitative data for each carotenoid was based on the development of a calibration curve using standards (astaxanthin, zeaxanthin, canthaxanthin, echinenone and β-carotene) and comparing peak area with defined concentrations.

[3] = presence of the antagonist, oleic acid without glucose

Structure (SMILES): CNc1cnn(-c2cccc(C(F)(F)F)c2)c(=O)c1Cl [norflurazon]
- DHA accumulated in ONC-T18, change versus control (in words) [1]: increase in the content and proportion of DHA
- DHA accumulated in ONC-T18, change versus control (in words) ([1]; listed as Norflurazon): DHA increase
- proportion of PUFA in ONC-T18 fatty acid profile (in words) ([1]; increasing amount added): proportion of PUFA increased
- adrenic acid, lipid as percentage of total fatty acid [1, 3]: 0.17%
- arachidic acid, lipid as percentage of total fatty acid [1, 3]: 0.16%
- arachidonic acid, lipid as percentage of total fatty acid [1, 3]: 0.19%
- behenic acid, lipid as percentage of total fatty acid [1, 3]: 0.05%
- docosadienoic acid, lipid as percentage of total fatty acid [1, 3]: 0.03%
- docosahexaenoic acid, lipid as percentage of total fatty acid [1, 3]: 20.61%
- docosapentaenoic acid n-3, lipid as percentage of total fatty acid [1, 3]: 0.19%
- docosapentaenoic acid n-6, lipid as percentage of total fatty acid [1, 3]: 5.23%
- eicosadienoic acid, lipid as percentage of total fatty acid [1, 3]: 0.13%
- eicosapentaenoic acid, lipid as percentage of total fatty acid [1, 3]: 0.76%
- eicosatetraenoic acid, lipid as percentage of total fatty acid [1, 3]: 0.24%
- eicosatrienoic acid, lipid as percentage of total fatty acid [1, 3]: 0.00%
- eicosenoic acid, lipid as percentage of total fatty acid [1, 3]: 0.02%
- heneicosapentaenoic acid, lipid as percentage of total fatty acid [1, 3]: 0.00%
- hexacosanoic acid, lipid as percentage of total fatty acid [1, 3]: 0.00%
- homo-gamma-linolenic acid, lipid as percentage of total fatty acid [1, 3]: 0.18%
- lignoceric acid, lipid as percentage of total fatty acid [1, 3]: 0.00%
- margaric acid, lipid as percentage of total fatty acid [1, 3]: 1.03%
- myristic acid, lipid as percentage of total fatty acid [1, 3]: 11.08%
- myristoleic acid, lipid as percentage of total fatty acid [1, 3]: 0.12%
- nervonic acid, lipid as percentage of total fatty acid [1, 3]: 0.00%
- oleic acid, lipid as percentage of total fatty acid [1, 3]: 0.00%
- palmitic acid, lipid as percentage of total fatty acid [1, 3]: 40.61%
- palmitoleic acid, lipid as percentage of total fatty acid [1, 3]: 10.65%
- pentadecanoic acid, lipid as percentage of total fatty acid [1, 3]: 3.16%
- pentadecenoic acid, lipid as percentage of total fatty acid [1, 3]: 0.33%
- stearic acid, lipid as percentage of total fatty acid [1, 3]: 1.52%
- vaccenic acid, lipid as percentage of total fatty acid [1, 3]: 3.53%
- carotenoid content of ONC-T18 (in words) [2]: carotenoid content decreased
